# Patent US20110257215A1, “NOVEL CO-CRYSTAL OF TIOTROPIUM BROMIDE” (Boehringer Ingelheim Pharma GmbH CO.KG, priority 2006, published 2011)
# Details: solid crystalline form; no method or figures given
smiles,measurement,value
C[N+]1(C)C2CC(OC(=O)C(O)(c3cccs3)c3cccs3)CC1C1OC12.NC(N)=O.[Br-] (stereo not shown) [tiotropium bromide-urea co-crystal],hygroscopical behaviour,only very little hygroscopical behaviour
